Molecules are shown by their SMILES.

A word on the melting point: it is the temperature, or range, at which the solid turns liquid. By IC50 is commonly meant the concentration that inhibits the measured activity by half. The low end stands for greater potency in that assay, the high end for weaker potency in that assay.

Data set [1] deals with T1, PI 3-kinase (p110α/p85α) (UniProt P32871).
T1 construct: other: GST-fused p110α/p85α
As to the kind of experiment: PI 3-kinase inhibition assay. Conditions: GST-fused p110α/p85α. The format is biochemical. An excerpt:
(§1) In order to assess the inhibitory action of the compounds against PI 3-kinase in vitro, the following assay was used to determine IC50 values.
(§2) Baculoviral recombinant GST-fused PI 3-kinase (p110α/p85α) was purified from Sf9 insect cells using GSH-sepharose affinity chromatography as described (Wymann, M. T et al., (1996) Wortmannin inactivates phosphoinositide 3-kinase by covalent modification of Lys-802, a residue involved in the phosphate transfer reaction. Mol. Cell Biol. 16:1722-1733). PI 3-kinase (1 μl) was diluted in reaction buffer (89 μl of 50 mM Hepes pH 7.5, 150 mM NaCl, 0.1 mM Sodium Orthovanadate, containing 20 μg of phosphatidylinositol) and varying concentrations of inhibitor compound added. […] Reactions were incubated for a further 20 minutes at 37° C., before quenching with the addition of 400 μl of chloroform/methanol (1:1). Reactions were acidified by the addition of 200 μl of 1M HCl, before separation of the organic and aqueous phases by centrifugation at 10,000 g for 30 seconds. The organic phase was transferred to a fresh tube and washed twice with 150 μl of 1M hydrochloric acid/methanol (1:1), discarding the aqueous phase. The washed reaction product was then placed in a white 96-well plate with 100 μl of scintillation fluid and transferred to a TopCount NXT for scintillation counting. Counts per minute, following a one minute counting time, were recorded for each reaction. The inhibition of PI 3-kinase activity by compounds was calculated as described above for the DNA-PK assay.
(§3) The selectivity was determined by the following equation: […]

Data set [2] relates to PI 3-kinase (p110α/p85α). As to the kind of experiment: PI 3-kinase inhibition assay. Type of data set: biochemical. The settings on record: selectivity ratio from the IC50s for PI 3-kinase and DNA-PK.
Description: as §1, §2, §3

In turn, `O=c1cc(N2CCOCC2)oc2c3c(ccc12)CCCC3` [Compound 297, 7,8,9,10-tetrahydro-benzo[h]-2-(morpholin-4-yl)-chromen-4-one] yielded a melting point of 220 to 222 °C. This compound gave a concentration for half-maximal inhibition (IC50) at PI 3-kinase (p110α/p85α) [1] of 18 µM. In the data set with PI 3-kinase (p110α/p85α) [2], the “Δ(DNA-PK/PI 3-K)” value is 36.
On the same counts, the results for `CC1CN(c2cc(=O)c3ccc4ccccc4c3o2)CCO1` (stereo not drawn) [Compound 317, 2-(2-Methyl-morpholin-4-yl)-benzo[h]chromen-4-one] are 181 to 183 °C, 2.5 µM and 8.
`O=C1c2ccccc2C(=O)N1CCCOc1ccc2c(=O)cc(N3CCOCC3)oc2c1` [Compound 422, N-[3-(2-(Morpholin-4-yl)-4-oxo-4H-chromen-7-yloxy)-propyl]-phthalimide] had a melting point of 210 to 211 °C. Also, at PI 3-kinase (p110α/p85α) [1], it took 6 µM to reach half-maximal inhibition (IC50). Besides, the “Δ(DNA-PK/PI 3-K)” value in the data set with PI 3-kinase (p110α/p85α) [2] is recorded as 12.

The values are drawn from patent publication US7674823B2, “DNA-PK inhibitors” (Cancer Research Technology Limited, priority 2001, dated 2010).
